Measurements taken from patent US20170152258A9, “Substituted Pyridopyrazines as Syk Inhibitors” (HUTCHISON MEDIPHARMA LIMITED, priority 2012, published 2017).

Columns and labels:
Syk kinase = Syk kinase (Homo sapiens, UniProt P43405); assay: SYK Enzymatic Assay (Z-LYTE Tyr 2 peptide); assay type: biochemical; conditions: 8 concentrations 1 μM down to 0.0003 μM
Outline: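 Z-LYTE format using Tyr 2 peptide. After the 1 h room-temperature kinase reaction, development reagent was added for 1 h, then stop reagent. Fluorescence was read at 445 and 520 nm. Compounds were tested at 8 concentrations, 1 μM down to 0.0003 μM (1:3 dilutions).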

RBL-2H3 cells = assay: IgE-induced Beta-hexosaminidase secretion in RBL-2H3 cells; assay type: cell-based; conditions: DNP-BSA stimulation
Outline: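 RBL-2H3 cells sensitized overnight with 0.5 ug/ml SPE-7 IgE, washed, preincubated with compound 20 min at 37° C, then stimulated with DNP-BSA (150 ng/mL stock) for 45 min. Released β-hexosaminidase measured on supernatant with 1 mM 4-nitrophenyl N-acetyl-β-D-glucosaminide, pH 4.5, 1.5 hr at 37° C; absorbance 405 nm after carbonate quench.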

[1] = Rattus norvegicus, RBL-2H3, IgE-induced Beta-hexosaminidase secretion

Row | IC50 (Syk kinase) | IC50 (RBL-2H3 cells; [1]) | IC50 (RBL-2H3 cells; IgE-induced Beta-hexosaminidase secretion) | Structure (SMILES)
1 | 0.081 µM | 0.114 µM |  | CC(=O)N1CCO[C@H](COc2nc(-c3ccc(N4CCN(C)CC4)c(C)c3)cc3nccnc23)C1 [Compound 186]
2 | 0.011 µM | 0.039 µM |  | Cc1cc(-c2cc3nccnc3c(OC[C@@H]3CN(S(N)(=O)=O)CCO3)n2)ccc1N(C)C [Compound 188]
3 | 0.061 µM | 0.078 µM |  | CC(=O)N1CCO[C@H](COc2nc(-c3ccc4c(c3)CCN4C)cc3nccnc23)C1 [Compound 189]
4 | 0.05 µM | 0.645 µM |  | c1cnc2c(O[C@@H]3CCOC3)nc(-c3ccc(C4CCNCC4)cc3)cc2n1 [Compound 190]
5 | 0.03 µM | 0.049 µM |  | Cc1cc(-c2cc3nccnc3c(O[C@@H]3CCOC3)n2)ccc1N1CCOCC1 [Compound 192]
6 | 0.066 µM | 0.143 µM |  | Fc1cc(-c2cc3nccnc3c(O[C@@H]3CCOC3)n2)ccc1N1CCOCC1 [Compound 193]
7 | 0.063 µM | 0.129 µM |  | CC(C)c1ccc(-c2cc3nccnc3c(OC[C@@H]3CN(C(=O)CO)CCO3)n2)cc1 [Compound 195]
8 | 0.067 µM | 0.128 µM |  | C[C@@H](O)C(=O)N1CCO[C@H](COc2nc(-c3ccc(N(C)C)cc3)cc3nccnc23)C1 [Compound 196]
9 | 0.085 µM | 0.081 µM |  | C[C@H](O)C(=O)N1CCO[C@H](COc2nc(-c3ccc(N(C)C)cc3)cc3nccnc23)C1 [Compound 197]
10 | 0.04 µM | 0.086 µM |  | CCC(=O)N1CCO[C@H](COc2nc(-c3ccc(N(C)C)cc3)cc3nccnc23)C1 [Compound 198]
11 | 0.088 µM | 0.211 µM |  | CN(C)c1ccc(-c2cc3nccnc3c(OC[C@@H]3CN(C(=O)N4CCC4)CCO3)n2)cc1 [Compound 199, (S)-azetidin-1-yl(2-(((7-(4-(dimethylamino)phenyl)pyrido[3,4-b]pyrazin-5-yl)oxy)methyl)morpholino)methanone]
12 | 0.051 µM | 0.133 µM |  | Cc1cc(-c2cc3nccnc3c(OC[C@@H]3CN(C(=O)[C@@H](C)O)CCO3)n2)ccc1N(C)C [Compound 200]
13 | 0.049 µM | 0.1 µM |  | Cc1cc(-c2cc3nccnc3c(OC[C@@H]3CN(C(=O)[C@H](C)O)CCO3)n2)ccc1N(C)C [Compound 201]
14 | 0.026 µM | 0.09 µM |  | CCC(=O)N1CCO[C@H](COc2nc(-c3ccc(N(C)C)c(C)c3)cc3nccnc23)C1 [Compound 202]
15 | 0.06 µM | 0.107 µM |  | CS(=O)(=O)N1CCO[C@H](COc2nc(-c3ccc4[nH]ncc4c3)cc3nccnc23)C1 [Compound 203]
16 | 0.027 µM | 0.019 µM |  | CC(=O)N1CCN(c2ccc(-c3cc4nccnc4c(O[C@@H]4CCOC4)n3)cc2C)CC1 [Compound 205]
17 | 0.072 µM | 0.052 µM |  | CN(C)c1ccc(-c2cc3nccnc3c(OC[C@@H]3CNC(=O)C3)n2)cc1 [Compound 206, (S)-4-(((7-(4-(dimethylamino)phenyl)pyrido[3,4-b]pyrazin-5-yl)oxy)methyl)pyrrolidin-2-one]
18 | 0.011 µM | 0.008 µM | 0.014 µM | CN1CCCc2cc(-c3cc4nccnc4c(OC[C@@H]4CN(S(C)(=O)=O)CCO4)n3)ccc21 [Compound 207]
19 | 0.013 µM | 0.02 µM |  | CN1CCCc2cc(-c3cc4nccnc4c(OC[C@@H]4CN(S(N)(=O)=O)CCO4)n3)ccc21 [Compound 208]

Row | IC50 (Syk kinase) | IC50 (RBL-2H3 cells; [1]) | IC50 (RBL-2H3 cells; IgE-induced Beta-hexosaminidase secretion) | Structure (SMILES)
20 | 0.017 µM | 0.057 µM |  | CN1CCCc2cc(-c3cc4nccnc4c(OC[C@@H]4CN(C(N)=O)CCO4)n3)ccc21 [Compound 209]
21 | 0.03 µM | 0.032 µM |  | Cc1cc(-c2cc3nccnc3c(O[C@@H]3CCOC3)n2)ccc1N1CCN(S(C)(=O)=O)CC1 [Compound 210]
22 | 0.058 µM | 0.078 µM |  | CNS(=O)(=O)N1CCO[C@H](COc2nc(-c3ccc(N(C)C)cc3)cc3nccnc23)C1 [Compound 211]
23 | 0.017 µM | 0.03 µM |  | CC(C)(C#N)c1ccc(-c2cc3nccnc3c(OC[C@@H]3CN(S(C)(=O)=O)CCO3)n2)cc1 [Compound 212]
24 | 0.057 µM | 0.071 µM |  | CC(O)c1ccc(-c2cc3nccnc3c(OC[C@@H]3CN(S(C)(=O)=O)CCO3)n2)cc1 (stereo partly drawn) [Compound 213, 1-(4-(5-(((S)-4-(methylsulfonyl)morpholin-2-yl)methoxy)pyrido[3,4-b]pyrazin-7-yl)phenyl)ethanol]
25 | 0.016 µM | 0.02 µM |  | CN1CCc2cc(-c3cc4nccnc4c(OC[C@@H]4CN(S(C)(=O)=O)CCO4)n3)ccc21 [Compound 214]
26 | 0.019 µM | 0.04 µM |  | CN1CCc2cc(-c3cc4nccnc4c(OC[C@@H]4CN(S(N)(=O)=O)CCO4)n3)ccc21 [Compound 215]
27 | 0.049 µM | 0.122 µM |  | CN1CCc2cc(-c3cc4nccnc4c(OC[C@@H]4CN(C(N)=O)CCO4)n3)ccc21 [Compound 216]
28 | 0.045 µM | 0.068 µM |  | c1cnc2c(O[C@@H]3CCOC3)nc(-c3ccc(C4CCOCC4)cc3)cc2n1 [Compound 217]
29 | 0.026 µM | 0.027 µM |  | CN(C)c1ccc(-c2cc3nccnc3c(OC[C@@H]3CN(S(C)(=O)=O)CCO3)n2)cn1 [Compound 218]
30 | 0.086 µM | 0.069 µM |  | CNS(=O)(=O)N1CCO[C@H](COc2nc(-c3ccc(OC)c(OC)c3)cc3nccnc23)C1 [Compound 220]
31 | 0.044 µM | 0.038 µM |  | CNS(=O)(=O)N1CCO[C@H](COc2nc(-c3ccc(N(C)C)c(C)c3)cc3nccnc23)C1 [Compound 221]
32 | 0.084 µM | 0.105 µM |  | CCc1ccc(-c2cc3nccnc3c(OC[C@@H]3CN(C(=O)NC)CCO3)n2)cc1 [Compound 222]
33 | 0.057 µM | 0.121 µM |  | O=C1C[C@H](COc2nc(-c3ccc(N4CCOCC4)cc3)cc3nccnc23)CN1 [Compound 223]
34 | 0.048 µM | 0.103 µM |  | Cc1cc(-c2cc3nccnc3c(OC[C@@H]3CNC(=O)C3)n2)ccc1N1CCOCC1 [Compound 224]
35 | 0.047 µM | 0.302 µM |  | CN1CCN(c2ccc(-c3cc4nccnc4c(OC[C@@H]4CNC(=O)C4)n3)cc2)CC1 [Compound 225]
36 | 0.029 µM | 0.06 µM |  | Cc1cc(-c2cc3nccnc3c(OC[C@@H]3CNC(=O)C3)n2)ccc1N(C)C [Compound 226]
37 | 0.037 µM | 0.07 µM |  | OCCN1CCC(c2ccc(-c3cc4nccnc4c(O[C@@H]4CCOC4)n3)cc2)CC1 [Compound 227]
38 | 0.028 µM | 0.039 µM |  | CC(C)(O)C1CCN(c2ccc(-c3cc4nccnc4c(O[C@@H]4CCOC4)n3)cc2)CC1 [Compound 228]

Row | IC50 (Syk kinase) | IC50 (RBL-2H3 cells; [1]) | IC50 (RBL-2H3 cells; IgE-induced Beta-hexosaminidase secretion) | Structure (SMILES)
39 | 0.049 µM | 0.094 µM |  | C[C@@H]1CN(c2ccc(-c3cc4nccnc4c(O[C@@H]4CCOC4)n3)cc2)C[C@H](C)O1 [Compound 229]
40 | 0.152 µM | 0.429 µM |  | CC(F)(F)c1ccc(-c2cc3nccnc3c(OC[C@@H]3CN(S(C)(=O)=O)CCO3)n2)cc1 [Compound 230]
41 | 0.042 µM | 0.087 µM |  | CC(C)(C(N)=O)c1ccc(-c2cc3nccnc3c(OC[C@@H]3CN(S(C)(=O)=O)CCO3)n2)cc1 [Compound 231]
42 | 0.067 µM | 0.056 µM |  | CN(C)c1ccc(-c2cc3nccnc3c(OC[C@H]3CNC(=O)C3)n2)cc1 [Compound 232]
43 | 0.047 µM | 0.124 µM |  | NC(=O)N1CCO[C@H](COc2nc(-c3ccc(C4CCOCC4)cc3)cc3nccnc23)C1 [Compound 241, (S)-2-(((7-(4-(tetrahydro-2H-pyran-4-yl)phenyl)pyrido[3,4-b]pyrazin-5-yl)oxy)methyl)morpholine-4-carboxamide]
44 | 0.095 µM | 0.044 µM |  | CC(Oc1nc(-c2ccc(N(C)C)cc2)cc2nccnc12)C1CN(S(N)(=O)=O)CCO1 (centres unmarked) [Compound 246]
45 | 0.088 µM | 0.054 µM |  | CC(=O)N1CCO[C@H](COc2nc(-c3ccc(C(C)(C)C#N)cc3)cc3nccnc23)C1 [Compound 248]
46 | 0.042 µM | 0.069 µM |  | CNC(=O)N1CCO[C@H](COc2nc(-c3ccc(C(C)(C)C#N)cc3)cc3nccnc23)C1 [Compound 249]
47 | 0.028 µM | 0.112 µM |  | CC(C)(C#N)c1ccc(-c2cc3nccnc3c(OCC3CN(S(N)(=O)=O)CCO3)n2)cc1 (centres unmarked) [Compound 250]
48 | 0.075 µM | 0.083 µM |  | CNS(=O)(=O)N1CCOC(COc2nc(-c3ccc(C(C)(C)C#N)cc3)cc3nccnc23)C1 (centres unmarked) [Compound 251]
49 | 0.031 µM | 0.381 µM |  | CC(C)(C#N)c1ccc(-c2cc3nccnc3c(OC[C@@H]3CN(C(N)=O)CCO3)n2)cc1 [Compound 252]
50 | 0.055 µM | 0.099 µM |  | CC(=O)N1CCO[C@H](COc2nc(-c3ccc(C(C)(C)C)cc3)cc3nccnc23)C1 [Compound 254]
51 | 0.027 µM | 0.097 µM |  | CC(C)(C)c1ccc(-c2cc3nccnc3c(OC[C@@H]3CN(C(N)=O)CCO3)n2)cc1 [Compound 255]
52 | 0.036 µM | 0.092 µM |  | CC(C)(C)c1ccc(-c2cc3nccnc3c(OC[C@@H]3CN(S(C)(=O)=O)CCO3)n2)cc1 [Compound 256]
53 | 0.063 µM | 0.16 µM |  | CC(C)(C)c1ccc(-c2cc3nccnc3c(OC[C@@H]3CN(S(N)(=O)=O)CCO3)n2)cc1 [Compound 257]
54 | 0.081 µM | 0.187 µM |  | CS(=O)(=O)N1CCO[C@H](COc2nc(-c3ccc(CN4CCOCC4)cc3)cc3nccnc23)C1 [Compound 258]
55 | 0.054 µM | 0.297 µM |  | CC(=O)N(C)Cc1ccc(-c2cc3nccnc3c(OC[C@@H]3CN(S(C)(=O)=O)CCO3)n2)cc1 [Compound 259]
56 | 0.024 µM | 0.135 µM |  | NS(=O)(=O)N1CCO[C@H](COc2nc(-c3ccc(C4CCOCC4)cc3)cc3nccnc23)C1 [Compound 260]
